Measured values as given in patent publication US9664676B2, “RNA sequences that induce fluorescence of small molecule fluorophores” (Cornell University, priority 2013, dated 2017).

B1: tBroccoli: Broccoli with tRNA scaffold, SEQ ID NO: 38 (nucleic acid)
chain: GCCCGGATAGCTCAGTCGGTAGAGCAGCGGAGACGGTCGGGTCCAGATATTCGTATCTGTCGAGTAGAGTGTGGGCTCCGCGGGTCCAGGGTTCAAGTCCCTGTTCGGGCGCCA
modifications: chemistry not given here

Tests used:
[1] = Folding measurements with DFHBI-1T; type: physicochemical; conditions: for percent folded: in vitro folding assay
Description: Briefly, fluorescence intensity of two solutions were compared: the one having excess of the dye and limiting amount of RNA and the other with excess of RNA and limiting amount of the dye. 1 μM of 1T (or RNA) and 20 μM of RNA (or 1T) was used. Signal from the first condition (limiting RNA) was divided by the signal from the second condition (limiting dye) to determine the fraction folded. To measure folding in a context of different flanking sequences RNA was generated from separate dsDNA fragments. These fragments were PCR amplified to have β-actin, 5S rRNA and 7SK RNA sequences on either or both sides of Broccoli. The folding assay then proceeded as described above.
(§1) To measure the fluorescence of aptamer-fluorophore complexes, an approach that overcomes potential confounding effects of incomplete RNA folding was used. The fluorescence of RNA-fluorophore complexes can be measured in either of two ways: using “excess RNA” or “excess fluorophore” (Ponchon et al., “Recombinant RNA Technology: the tRNA Scaffold,” Nat. Methods 4(7): 571-6 (2007), which is hereby incorporated by reference in its entirety). In an “excess RNA” experiment enough RNA was added to ensure that all the fluorophore (e.g. 1 μM) is bound to the RNA even if a sizeable portion of the RNA is unfolded. As a result, one can be confident that a 1 μM RNA-fluorophore complex is present, and one can therefore calculate the “molar brightness,” the fluorescence of a specific concentration of RNA-fluorophore complex independent of RNA folding. In the case of excess fluorophore experimental conditions were reversed and 1 μM of RNA was used with a vast excess of the fluorophore. In this case, the amount of RNA-fluorophore complex is highly dependent on the amount of RNA that is folded.

E. coli = experiment: Fluorescence measurements of E. coli (colonies, suspensions) expressing aptamers with DFHBI-1T; type: cell-based, Escherichia coli
Description: Fluorescence Measurements of E. coli: Fluorescence measurements of E. coli were done in two general ways. To assess fluorescence brightness of bacterial colonies on a plate Acella or LMG194 strains cells were transferred to a new LB/agar dish with respective antibiotic and allowed to grow overnight at 37° C. Typically four to six colonies for the same aptamer were grown on the same plate to provide statistical data. These plates already contained 40 μM DFHBI-1T (or DFHBI) and 0.2% arabinose (in case of LMG194 strain). When Acella strain was used, 1 mM IPTG was added the next morning and incubation was continued for four to six hours more at 37° C. Bacterial colonies were then imaged under ChemiDoc MP imager as described above and images were processed in ImageJ program.
To measure fluorescence of bacterial cell suspensions BL21 Star (DE3) (Life Technologies) strain and pET28c-based expression plasmids were used. This combination provided the strongest signal. Fresh colony was inoculated into LB media with kanamycin and allowed to grow overnight at 37° C. to OD600 0.4. The cells were then induced with addition of 1 mM IPTG for 2-4 h at 37° C. After induction, cells were normalized for cell density and incubated with 400 μM DFHBI-1T. Cells were then measured for total fluorescence using a Genios Pro plate reader at 465 nm excitation and 535 nm emission. All values were normalized for slightly different excitation and emission spectra of Spinach2 and Broccoli.

[2] = In vitro fluorescence activation of DFHBI-1T by 29-1 and truncation mutants; type: biochemical; conditions: excess RNA conditions
Source text: In Vitro Characterization of Aptamers: dsDNA from the brightest bacterial cells in a library was PCR amplified from eluted plasmids. Truncation, deletion and point mutation mutants were generated from dsDNAs PCR amplified based on respective ssDNA templates (Protein and Nucleic Acid Facility, Stanford University Medical Center). Primers were designed so the PCR product contained T7 promoter sequence. When indicated, dsDNA or ssDNA also contained tRNA scaffold part. PCR products were then purified with PCR purification columns (Qiagen) and in vitro transcribed utilizing AmpliScribe T7-Flash Transcription Kit (Epicenter). RNA was purified using Bio-Spin columns (Bio-Rad), and quantified using both absorbance values and the Quant-iT RiboGreen RNA Assay Kit (Life Technologies).
All in vitro RNA properties were measured in 40 mM HEPES pH 7.4, 100 mM KCl, 1 mM MgCl2 buffer unless specified separately. All values presented are averaging of at least three independent experiments, error bars are standard deviations.
as §1

[3] = Magnesium dependence of aptamer fluorescence; type: physicochemical; conditions: MgCl2 titration
Description: To measure magnesium dependence 1 μM RNA was incubated with 10 μM 1T in 40 mM HEPES pH 7.4, 100 mM KCl buffer with different concentrations of MgCl2 and then fluorescence emission was measured on a plate reader.

HEK293T cells = experiment: Flow cytometry of HEK293T cells expressing 5S rRNA-aptamer fusions with DFHBI-1T; type: cell-based; conditions: flow cytometry
Description: FIG. 24 illustrates the quantification of the flow cytometry analysis of aptamers expression in mammalian cells. To compare specific aptamers' brightness in mammalian cells, HEK293T cells were transfected with two plasmids: one expressing aptamer (with or without tRNA) fused to 5S rRNA and another expressing mCherry fluorescent protein. Cells were then treated with 40 μM DFHBI-1T and analyzed on FACSAria III instrument in two channels: green (ex=488 nm; em=525±50 nm) and red (ex=561 nm and em=610±20). For quantification, mean fluorescent signal of the non-negative population was calculated and then mean fluorescent signal of the negative population was subtracted from it to assess specific, not background fluorescent signal. Finally, this number was multiplied by the percentage of the non-negative population to provide the total fluorescent signal of the non-negative population. These numbers are plotted on the bar graph above. Where indicated, cells were also pre-treated with 5 mM MgSO4. Error bar indicates robust SD calculated by FlowJo program, used for data analysis.
Imaging 5S-tBroccoli and 5S-t-tdBroccoli: Plasmids were transfected into HEK293T cell using FuGENE HD reagent (Promega) following manufacture's protocol. Cell imaging was carried out as previously described for 5S-Spinach (Paige et al., “RNA Mimics of Green Fluorescent Protein,” Science 333(6042): 642-6 (2011), which is hereby incorporated by reference in its entirety) with DFHBI-1T instead of DFHBI. […]
Flow cytometry was used to quantify average brightness of tRNA. Transfected cells were analyzed in two channels: green (ex=488 nm; em=525±50 nm) and red (ex=561 nm; em=610±20). […] As evidenced from FIG. 14A, 5S-tBroccoli and 5S-tdBroccoli are clearly detectable in the green fluorescence channel and this specific signal appears only upon cells treatment with DFHBI-1T (FIG. 23).

Molecule | percent folded [1] [%] | colony fluorescence compared to 29-1 (E. coli; E. coli colonies on LB-DFHBI-1T agar, tRNA scaffold) | ability to induce DFHBI-1T fluorescence [2] | ability to induce DFHBI-1T fluorescence ([2]; listed as T2) | folding relative to 29-1 ([1]; in vitro) [%] | fluorescence of aptamer-expressing E. coli cells (E. coli; tRNA fusions, suspension/plate reader, DFHBI-1T) | magnesium concentration giving maximal fluorescence [3] [µM] | detection in HEK293T cells of 5S fusions without tRNA scaffold (HEK293T cells) | increase of E. coli fluorescence with 20 mM MgCl2 (E. coli; LB media with versus without 20 mM MgCl2, after 1 hr) [%]
29-1-T2: 56-nucleotide truncation of 29-1, SEQ ID NO: 4 (GAGACGGUCGGGUCCAGCACAAAAAUGUUGCUGUUGAGUAGAGUGUGGGCUC; listed as RNA, chemistry not given here) | 45 | significantly less bright than colonies expressing 29-1 | retained the ability to induce DFHBI-1T fluorescence | able to induce fluorescence of DFHBI-1T | – | – | – | – | –
Broccoli: 49 nt RNA aptamer, SEQ ID NO: 75; 29-1-3-1 designated Broccoli (GAGACGGUCGGGUCCAGAUAUUCGUAUCUGUCGAGUAGAGUGUGGGCUC; further chemistry not given here) | – | – | – | – | 80 | more than twice as fluorescent as Spinach2-expressing cells | ~300 | can be detected in cells | –
B1 | ~60 | – | – | – | – | – | – | – | 36
